In paper PMC3459904, “Inhibition of HIV-1 Infection by Human α-Defensin-5, a Natural Antimicrobial Peptide Expressed in the Genital and Intestinal Mucosae” (PLoS ONE, 2012):
Like-named read-outs stand apart in the source and are kept apart here. Where a SMILES comes first, the peptide text is derived from it. Bridges are numbered along the chain shown (N, C = ends).

Experiments:
[1] = tested on: primary isolate HIV-1J176 in purified CD4+ T lymphocytes
Method: Viral stocks were titrated on activated human CD4^+ T cells.
PBMCs were isolated from healthy blood donors by standard Ficoll-HyPaque (Pharmacia, Uppsala, Sweden) density gradient centrifugation from concentrated leukocytes of healthy blood donors and stimulated with 5 µg/ml PHA (Sigma, St. Louis, MO) in complete RPMI medium supplemented with 10% FBS and 50 U/ml recombinant IL-2 (Proleukin; Chiron Corporation, Emeryville, CA) (RPMI-10). After 3 days in culture, CD4^+ T cell population was enriched by negative immunomagnetic selection using Dynabeads M-450 (Invitrogen Carlsbad, CA) coated with monoclonal antibodies to CD8, CD14, CD19 and CD56 (Sigma, St. Louis, MO) according to the manufacturer’s protocol. Infection was carried out by spinoculation for 1.5 hours as previously described [32] with minor modifications. […]
The HIV-1 p24 Ag concentrations in the culture supernatants were determined by enzyme-linked immunosorbent assay (ELISA) at days 4 and 6 post-infection as previously described [68]. […] Bound p24 Ag was then detected using an alkaline phosphatase–conjugated anti-p24 monoclonal antibody (BC 1071-AP; Aalto Bio Reagents) and the AMPAK ELISA amplification system (DAKO A/S, Glostrup, Denmark).

[2] = tested on: X4 HIV-1 envelopes; details: read-out: mean IC50, envelope-mediated fusion, PM1 effector cells, NIH-3T3 CD4/CXCR4 target cells, 2 h at 37°C, medium without FCS, β-galactosidase, 3 experiments
[3] = tested on: HIV-1 envelope; details: envelope not stated
[4] = biological target: recombinant soluble CD4 (sCD4) (Homo sapiens, UniProt P01730); assay: biochemical
Method: (§1) Flat-bottom, 96-well MaxiSorp plates (NUNC, Roskilde, Denmark) were coated with recombinant sCD4 (5 µg/well) or HIV-1BaL gp120 (2 µg/well) in phosphate-buffered saline (PBS) for 18 hrs at 4°C. Bovine serum albumin (BSA) 3% was used for blocking the plates. Antibodies were added in 100 µl PBS+0.05%BSA and incubated for 1 hr at 37°C, after which the plate was washed and incubated for an additional hour at room temperature with the secondary antibody. Peroxidase-conjugated, affinity-purified goat-anti-mouse IgG or goat-anti-human IgG (Dako, Glostrup, Denmark) were used as secondary antibodies. […] The specific signal was calculated by subtracting background values obtained from replicate wells containing all the reagents except the specific ligand for each assay. Binding of mAbs 17b and 48d, directed to CD4-induced epitopes, was performed after preincubation of immobilized gp120 with sCD4 (2 µg/well) in PBS for 20 min at 37°C [65].

[5] = biological target: gp120/CD4 (Homo sapiens, UniProt P01730); assay: biochemical
Method: as §1

[6] = tested on: SHIV; details: macaques; ref [61]; cited from earlier work
Excerpt: Moreover, HD5 may share the mechanism of action of cyanovirin-N, a lectin-like protein that binds to mannose moieties in gp120 and of mAb IgG1b12, with which it competes for the same binding site on CD4 receptor. Both of these virus-targeting entry-inhibitors have been reported to protect macaques from vaginal SHIV ...

[7] = biological target: recombinant HIV-1 gp120 from isolate SF162 (HIV-1 isolate SF162); assay: ELISA; competition: increasing HD5 against mAb IgG1b12 (5 µg/mL) for binding to plastic-immobilised recombinant gp120; PBS + 0.05% BSA, 1 hr at 37°C
[8] = biological target: recombinant human soluble CD4 (human); assay: ELISA; competition: increasing HD5 against anti-CD4 mAb (Leu3a; OKT4) for binding to plastic-immobilised sCD4 (coated at 5 µg/mL); HD5 added before the mAb and kept in the wells
[9] = biological target: recombinant HIV-1 gp120 from isolate BaL (HIV-1 isolate BaL); assay: ELISA; competition: increasing HD5 against the binding of sCD4 and gp120; the text has gp120 on plastic and sCD4 in solution, the legend has sCD4 coated at 5 µg/mL and gp120BaL in solution; HD5 added first and kept in the wells

For `CC[C@H](C)[C@@H]1NC(=O)[C@H](CCC(=O)O)NC(=O)[C@@H]2CSSC[C@@H]3NC(=O)[C@H](Cc4ccc(O)cc4)NC(=O)[C@@H](NC(=O)[C@@H](NC(=O)[C@H](C)N)[C@@H](C)O)CSSC[C@@H](C(=O)N[C@@H](CCCNC(=N)N)C(=O)O)NC(=O)[C@H](CSSC[C@H](NC(=O)[C@H](CCCNC(=N)N)NC(=O)CNC(=O)[C@H]([C@@H](C)O)NC(=O)[C@H](CCCNC(=N)N)NC3=O)C(=O)N[C@@H](C)C(=O)N[C@@H]([C@@H](C)O)C(=O)N[C@@H](CCCNC(=N)N)C(=O)N[C@@H](CCC(=O)O)C(=O)N[C@@H](CO)C(=O)N[C@@H](CC(C)C)C(=O)N[C@@H](CO)C(=O)NCC(=O)N[C@@H](C(C)C)C(=O)N2)NC(=O)[C@H](CC(C)C)NC(=O)[C@H](CCCNC(=N)N)NC(=O)[C@H](Cc2ccc(O)cc2)NC(=O)[C@H](CC(C)C)NC(=O)[C@H](CCCNC(=N)N)NC(=O)CNC(=O)[C@H](CO)NC1=O` [HD5] (H-ATCYCRTGRCATRESLSGVCEISGRLYRLCCR-OH; disulfide 3-31, 5-20, 10-30), the IC50 ([1]; primary isolate 1J176 in purified CD4+ T lymphocytes, 1 h) was 60 nM, the IC50 ([1]; read-out: half-maximal inhibitory concentration (IC50), HIV-1 replication, HIV-1J176, no serum (RPMI-0.3-ITS: 0.3% human AB serum, ITS, rIL-2 50 U/ml), virions pre-incubated with HD5 1 h at 37°C, spinoculation 1.5 h, p24 ELISA day 6, mean of 3 experiments in triplicate) was 400 nM and the IC50 [2] was 2770 ± 380 nM. It also gave an IC50 ([3]; read-out: IC50, fusion with FBS, with FBS (2.5% vol/vol)) of 56000 nM, an IC50 ([3]; read-out: IC50, fusion without FBS, without FBS) of 2300 nM and an IC50 [4] of 1800 nM. It also gave an IC50 [5] of 900 nM.

In the case of cyanovirin-N, the “protection from vaginal SHIV-challenge” value [6] is given as “protect macaques from vaginal SHIV-challenge”.

Molecule ATCYCRTGRCATRESLSGVCEISGRLYRLCCR [human α-defensin-5] has an IC50 [7] of 6500 nM, an IC50 [8] of 1800 nM and an IC50 [9] of 900 nM.
